Laboratory results published in ChEMBL document CHEMBL1137956, “Different hydroxyl radical scavenging activity of water-soluble beta-alanine C60 adducts” (Bioorg Med Chem Lett, 2004).

Species on record: Mus musculus
Test: Hydroxyl radical scavenging activity by chemiluminescence technique in mouse thymus cells
Assay type: functional

| SMILES | IC50 [uM l-1] | IC50 (Mus musculus, read-out: IC50) [µM] |
| --- | --- | --- |
| O=C(O)c1ccccc1 [BENZOIC ACID] | 16600 |  |
| CN(CCC(=O)O)C12C3=c4c5c6c7c8c9c%10c%11c%12c%13c%14c%15c%16c%17c%18c%19c%20c(c4c4c5c8c(c%139)c(c%14%18)c%194)C4(NCCC(=O)O)C5=c8c9c(c-%16c%13c%14c%16c(c-%11c%11c%18c(c%19c1c(c8c(c9%14)c%19c%18%16)C34)=C(C62)C7(NCCC(=O)O)C%11%10)C%13C%12%15NCCC(=O)O)C%17C5%20NCCC(=O)O (stereo unspecified) |  | 76.3 |
| NC(N)=S [THIOUREA] | 1200 |  |
| OC[C@@H](O)[C@@H](O)[C@H](O)[C@H](O)CO [MANNITOL] | 13800 |  |

The remaining lines, values ahead:

| IC50 [uM l-1] | IC50 (Mus musculus, read-out: IC50) [µM] | SMILES |
| --- | --- | --- |
| 147.2 |  | O=C([O-])CCNC12c3c4c5c6c7c8c(c9c%10c1c1c3c3c%11c4c4c5c5c7c7c%12c8c8c9c9c%10c%10c1c1c3c3c%11c%11c4c4c5c7c5c7c%12c8c8c9c9c%10c1c1c3c3c%11c4c5c4c7c8c9c1c34)C62.[Na+] (stereo unspecified) |
|  | 96.2 | CN(CCC(=O)O)C12C3=C4c5c6c7c8c9c%10c%11c%12c%13c%14c%15c%16c%17c%18c(c5c8c(c%15%18)c%139)C4(NCCC(=O)O)C4C=%17C5(NCCC(=O)O)C(=C8c9c1c1c%13c%15c%17c%18c%19c%20c%21c(c8c%19c9%15)C5C=%16C%21(NCCC(=O)O)C%14C%12(NCCC(=O)O)C%20C%18(NCCC(=O)O)C%11C5(NCCC(=O)O)C%17C%13=C(C6(NCCC(=O)O)C31)C7(NCCC(=O)O)C%105)C42 (stereo unspecified) |
